We go through six compounds from patent publication US4740233A, “Substituted 1,2,4-triazolo[1,5-a]-pyrimidine-2-sulfonamides and compositions and methods of controlling undesired vegetation and suppressing the nitrification of ammonium nitrogen in soil” (The Dow Chemical Company, priority 1986, dated 1988).

One experiment deals with cotton. Kind of experiment: Postemergent control of plant species. It is filed as in vivo, Gossypium spp. The settings on record: Gossypium hirsutum, post-emergence, 336 h, read-out: percent postemergent control. The protocol: (§1) In representative operations, each compound to be utilized in a series of tests is dissolved in acetone to one-half of the final volume (twice the final concentration) to be used and the acetone solution in each case is admixed with an equal volume of water containing 0.1 percent by weight of surface active material. The compositions, generally in the nature of an emulsion, were employed to spray separate respective plant species which had been grown to a 2-4 leaf stage in soil of good nutrient content in a greenhouse. The various beds were positioned side by side and exposed to substantially identical conditions of temperature and light. Each bed was maintained so as to prevent any interaction with test compounds in different seed beds. Other plants were left untreated to serve as controls. After treatment, the plants were maintained for about two weeks under greenhouse conditions conducive for good plant growth and watered as necessary. Control refers to the reduction in growth compared to the observed results of the same untreated species.

For another experiment, the system named is rape. Kind of experiment: Postemergent control of plant species. The conditions noted are these: Brassica napus, post-emergence, 336 h, read-out: percent postemergent control. It is filed as in vivo, Brassica napus. The protocol:
as §1

Another experiment relates to soybean. The experiment in a line: Postemergent control of plant species. The conditions noted are these: Glycine max, post-emergence, 336 h, read-out: percent postemergent control. It is filed as in vivo, Glycine max. The protocol:
as §1

The test system of the next experiment is sugar beet. The experiment in a line: Postemergent control of plant species. The settings on record: Beta vulgaris, post-emergence, 336 h, read-out: percent postemergent control. The experiment is classed as in vivo, Beta saccharifera. As for the experimental part:
as §1

A further experiment deals with cocklebur. The experiment in a line: Postemergent control of plant species. The experiment is classed as in vivo, Xanthium spp. The conditions noted are these: Xanthium strumarium, post-emergence, 336 h, read-out: percent postemergent control. As for the experimental part:
as §1

For another experiment, the system named is jimsonweed. The experiment in a line: Postemergent control of plant species. It is filed as in vivo, Datura stramonium. The settings on record: Datura stramonium, post-emergence, 336 h, read-out: percent postemergent control. As for the experimental part: as §1
The test system of the next experiment is annual morning glory. The experiment in a line: Postemergent control of plant species. The experiment is classed as in vivo, Ipomoea spp. The settings on record: Ipomoea, post-emergence, 336 h, read-out: percent postemergent control. The protocol:
as §1

In another experiment the test system is pigweed. The experiment in a line: Postemergent control of plant species. It is filed as in vivo, Amaranthus spp. The conditions noted are these: Amaranthus retroflexus, post-emergence, 336 h, read-out: percent postemergent control. As for the experimental part: as §1
The next experiment relates to velvetleaf. Kind of experiment: Postemergent control of plant species. It is filed as in vivo, Abutilon theophrasti. The conditions noted are these: Abutilon theophrasti, post-emergence, 336 h, read-out: percent postemergent control. As for the experimental part:
as §1

The next experiment relates to corn. The experiment in a line: Postemergent control of plant species. The conditions noted are these: Zea mays, post-emergence, 336 h, read-out: percent postemergent control. It is filed as in vivo, Zea mays. The protocol: as §1
The next experiment deals with rice. The experiment in a line: Postemergent control of plant species. The experiment is classed as in vivo, Oryza sativa. The conditions noted are these: Oryza sativa, post-emergence, 336 h, read-out: percent postemergent control. As for the experimental part: as §1
In another experiment the test system is sorghum. Kind of experiment: Postemergent control of plant species. It is filed as in vivo, Sorghum vulgare. The settings on record: Sorghum, post-emergence, 336 h, read-out: percent postemergent control. The protocol:
as §1

Another experiment deals with barnyardgrass. Kind of experiment: Postemergent control of plant species. The settings on record: Echinochloa crus-galli, post-emergence, 336 h, read-out: percent postemergent control. The experiment is classed as in vivo, Echinochloa crusgalli. As for the experimental part: as §1
A further experiment deals with crabgrass. The experiment in a line: Postemergent control of plant species. The settings on record: Digitaria sanguinalis, post-emergence, 336 h, read-out: percent postemergent control. It is filed as in vivo, Digitaria spp. The protocol: as §1
The next experiment deals with yellow foxtail. Kind of experiment: Postemergent control of plant species. It is filed as in vivo, Setaria lutescens. The conditions noted are these: Setaria, post-emergence, 336 h, read-out: percent postemergent control. The protocol:
as §1

A further experiment relates to johnson grass. The experiment in a line: Postemergent control of plant species. It is filed as in vivo, Sorghum halepense. The conditions noted are these: Sorghum halepense, post-emergence, 336 h, read-out: percent postemergent control. As for the experimental part:
as §1

For the next experiment, the system named is wild oats. Kind of experiment: Postemergent control of plant species. The experiment is classed as in vivo, Avena fatua. The settings on record: Avena fatua, post-emergence, 336 h, read-out: percent postemergent control. The protocol:
as §1

In a further experiment the test system is yellow nutsedge. The experiment in a line: Postemergent control of plant species. The conditions noted are these: Cyperus, post-emergence, 336 h, read-out: percent postemergent control. It is filed as in vivo, Cyperus esculentus. The protocol:
as §1

The test system of experiment [1] is nitrification of ammonium nitrogen. Kind of experiment: Suppression of nitrification of ammonium nitrogen in soil. The conditions noted are these: 27° C. The method in brief: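 Value is % NH4-N remaining after a two-week, 27° C incubation of treated soil held at 1/3 bar tension moisture. Nitrate was measured with an ion-selective electrode after extraction with ammonium sulfate solution and 10 min shaking.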

In the next experiment the test system is wheat. The experiment in a line: Postemergent control of plant species. The experiment is classed as in vivo, Triticum aestivum. The settings on record: Triticum aestivum, post-emergence, 336 h, read-out: percent postemergent control. As for the experimental part:
as §1

Take `Cc1cc(C)n2nc(S(=O)(=O)Nc3c(Cl)cc(Cl)cc3Cl)nc2n1` [Compound 35, 5,7-dimethyl-N-(2,4,6-trichlorophynyl)-1,2,4-trizaolo[1,5-a]pyrimidine-2-sulfonamide]: the plant injury at 500 ppm is 0% in the experiment with cotton; 70% in the experiment with rape; 70% with soybean; 80% in the experiment on sugar beet; 0% in the experiment with corn; 0% in the experiment with rice. Further, in the experiment with sorghum, the plant injury at 500 ppm is 20%. Moreover, the pest or weed control at 500 ppm in the experiment on cocklebur was determined as 95%; in the experiment with jimsonweed, 30%; in the experiment with annual morning glory it was 40%; in the experiment with pigweed it was 90%; in the experiment with velvetleaf, 0%; in the experiment with barnyardgrass, 0%. Further, the pest or weed control at 500 ppm with crabgrass, in the experiment on yellow foxtail, in the experiment with johnson grass, in the experiment with wild oats and in the experiment with yellow nutsedge was 0% each time. Also, the “% NH4-N Remaining After 2 Weeks Incubation” value in experiment [1] (0.01 ppm) worked out at 0%; in [1] (0.1 ppm) it was 3%; in experiment [1] (1 ppm) it was 50%; in experiment [1] (10 ppm), 78%.
Turning to `Cc1cc(C)n2nc(S(=O)(=O)Nc3ccccc3S(C)(=O)=O)nc2n1` [Compound 45], the plant injury at 500 ppm in the experiment with cotton came to 0%; in the experiment with rape it was 70%; with soybean, 60%; with sugar beet, 70%; in the experiment with corn it was 0%; with rice, 50%. Besides, the plant injury at 500 ppm in the experiment with sorghum and in the experiment with wheat was 0% throughout. In addition, the pest or weed control at 500 ppm with cocklebur is 25%; in the experiment with jimsonweed it was 0%; in the experiment with annual morning glory, 10%; in the experiment on velvetleaf, 50%; in the experiment with barnyardgrass, 0%; in the experiment with crabgrass, 0%. Moreover, the pest or weed control at 500 ppm in the experiment on yellow foxtail, in the experiment with johnson grass, in the experiment on wild oats and in the experiment with yellow nutsedge was 0% throughout. Moreover, the “% NH4-N Remaining After 2 Weeks Incubation” value in experiment [1] (0.01 ppm) is 0%; in [1] (0.1 ppm), 3%; in experiment [1] (1 ppm) it was 45%; in experiment [1] (10 ppm) it was 94%.
Take `Cc1ccc(NS(=O)(=O)c2nc3nc(C)cc(C)n3n2)c(Cl)c1` [Compound 48]: the plant injury at 500 ppm came to 10% in the experiment on cotton; 75% in the experiment with rape; 55% with soybean; 70% in the experiment with sugar beet; 0% in the experiment with corn; 0% with rice. In addition, the plant injury at 500 ppm in the experiment with sorghum and in the experiment with wheat was 0% each time. Moreover, the pest or weed control at 500 ppm amounted to 70% in the experiment on cocklebur; 30% in the experiment with jimsonweed; 60% with annual morning glory; 40% in the experiment on velvetleaf; 0% in the experiment on barnyardgrass; 0% in the experiment with crabgrass. Also, the pest or weed control at 500 ppm with yellow foxtail, in the experiment with johnson grass, in the experiment on wild oats and with yellow nutsedge was 0% each time. In addition, the “% NH4-N Remaining After 2 Weeks Incubation” value was 0% in experiment [1] (0.01 ppm), 3% in experiment [1] (0.1 ppm), 56% in [1] (1 ppm) and 93% in [1] (10 ppm).
Turning to `Cc1cc(C)n2nc(S(=O)(=O)Nc3c(F)c(F)cc(F)c3F)nc2n1` [Compound 90], the plant injury at 500 ppm in the experiment with cotton is 0%; in the experiment with rape, 70%; with soybean, 50%; with corn, 0%; in the experiment on rice it was 0%; in the experiment on sorghum, 0%. In addition, the plant injury at 500 ppm with wheat was 0%. The pest or weed control at 500 ppm worked out at 75% in the experiment on cocklebur; 70% in the experiment on jimsonweed; 30% with annual morning glory; 100% in the experiment on pigweed; 50% in the experiment on velvetleaf; 0% in the experiment on barnyardgrass. The pest or weed control at 500 ppm with yellow foxtail was 70%; in the experiment on johnson grass, 20%; with wild oats it was 0%; in the experiment with yellow nutsedge it was 0%.
For `O=S(=O)(Nc1ccccc1C(F)(F)F)c1nc2ncc(Cl)cn2n1` [Compound 118], the plant injury at 500 ppm was found to be 0% in the experiment on cotton; 80% in the experiment with rape; 0% in the experiment with soybean; 100% in the experiment on sugar beet; 0% in the experiment on corn; 0% with rice. For the same compound, in the experiment on sorghum, the plant injury at 500 ppm was determined as 0%. For the same compound, the pest or weed control at 500 ppm in the experiment on cocklebur came out at 100%; with jimsonweed, 100%; in the experiment with annual morning glory it was 70%; in the experiment on pigweed, 70%; in the experiment on velvetleaf, 80%; in the experiment with barnyardgrass, 0%. Further, the pest or weed control at 500 ppm amounted to 60% with crabgrass; 20% in the experiment with yellow foxtail; 0% in the experiment with johnson grass; 0% with wild oats; 70% in the experiment on yellow nutsedge. In addition, the “% NH4-N Remaining After 2 Weeks Incubation” value was 30% in [1] (0.06 ppm), 37% in experiment [1] (0.25 ppm), 61% in experiment [1] (1 ppm) and 85% in experiment [1] (4 ppm).
As for `Cc1ccn2nc(S(=O)(=O)N(C(=O)N(C)C)c3c(Cl)cccc3Cl)nc2n1` [Compound 273], the plant injury at 500 ppm in the experiment on rape was found to be 100%; in the experiment with soybean, 40%; in the experiment with sugar beet, 100%; with corn, 0%; in the experiment with rice it was 20%; with sorghum, 40%. The plant injury at 500 ppm in the experiment on wheat stood at 0%. Moreover, the pest or weed control at 500 ppm in the experiment with cocklebur amounted to 40%; with jimsonweed, 100%; in the experiment with annual morning glory, 80%; in the experiment with pigweed it was 100%; in the experiment with velvetleaf, 50%; with barnyardgrass it was 20%. The pest or weed control at 500 ppm with crabgrass was 100%; in the experiment with yellow foxtail, 75%; in the experiment on johnson grass, 30%; with wild oats, 0%; with yellow nutsedge it was 40%.
